The values below come from article PMC5081515 (Scientific Reports, 2016).

Experiment [1] has as its target Human HGPRT. The arrangement: method as in Cesnek et al. 19; Keough et al. 18. The settings on record: ref Cesnek et al. 19, Keough et al. 18; cited from earlier work.
The target in experiment [2] is T1, TbrHGPRT (Trypanosoma brucei brucei, UniProt Q07010). Kind of experiment: Inhibition studies, Ki determination.
Experiment [3] deals with T1, TbrHGPRT. Kind of experiment: Standard enzyme activity assay with ammonium sulphate added. Format: biochemical. Also on record: made in house; host or cells: E. coli BL-21 (DE3), pET-22b. Conditions: 2M ammonium sulphate added to the cuvette.
The test system of the next experiment is TcrHGPRT. The arrangement: method as in Canyuk et al. 43; Allen & Ullman 54. The settings on record: cited from earlier work.
Experiment [4] has as its system Human HGPRT. Also on record: method as in de Jersey et al. 10. Conditions: cited from earlier work.
For experiment [5], the target named is T1, TbrHGPRT. The experiment is described as follows: Kinetic constants of naturally occurring substrates, continuous spectrophotometric assay. In kind it is biochemical. Also on record: made in house; host or cells: E. coli BL-21 (DE3), pET-22b. On the procedure: One unit of activity is defined as the number of μmol of purine base converted to its mononucleotide product per minute.
The kinetic constants were calculated using GraphPad Prism 6.0.

The mark [6] stands for this setting: ref Canyuk et al. 43, Allen & Ullman 54, read-out: Km.
The mark [7] stands for this setting: ref de Jersey et al. 10, read-out: Km.
Setting [8] is: ref Canyuk et al. 43, Allen & Ullman 54.

Read-outs that look alike come from different tables or passages of the source. Where only a bound is given, the exact number is not on record here.

T1 sequence (Q07010 whole entry): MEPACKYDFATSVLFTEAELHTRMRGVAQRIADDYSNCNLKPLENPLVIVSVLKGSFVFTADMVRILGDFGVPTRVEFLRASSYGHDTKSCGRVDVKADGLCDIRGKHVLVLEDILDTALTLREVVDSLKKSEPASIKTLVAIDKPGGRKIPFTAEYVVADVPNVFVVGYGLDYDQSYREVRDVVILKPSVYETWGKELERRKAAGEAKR

For the molecule `O=c1[nH]cnc2c1ncn2CCCP(=O)(O)O` [Compound 4], the inhibition constant (Ki) on Human HGPRT [1] and on TbrHGPRT [2] was above 100 µM in each case.

On to `O=c1[nH]cnc2c1ncn2CCCCCCP(=O)(O)O` [Compound 7], for which the inhibition constant Ki at Human HGPRT [1] is 77 µM; at TbrHGPRT [2], above 100 µM.

`Nc1nc2c(ncn2CCCCCCP(=O)(O)O)c(=O)[nH]1` [Compound 3]: the Ki is 0.5 µM on Human HGPRT [1] and 21.3 ± 0.4 µM on TbrHGPRT [2].

On to `Nc1nc2c(ncn2CCCCCP(=O)(O)O)c(=O)[nH]1` [Compound 2], for which the results for the inhibitory constant (Ki) on Human HGPRT [1] and at TbrHGPRT [2] were 0.5 µM and 2.3 ± 0.1 µM, respectively.

For the molecule `Nc1nc2c(ncn2[C@@H]2O[C@H](COP(=O)(O)O)[C@@H](O)[C@H]2O)c(=O)[nH]1` [GMP, reference compound], the Ki on Human HGPRT [1] was 5.8 ± 0.2 µM; at TbrHGPRT [2] (0.03 M phosphate, […] MgCl2, 1 mM DTT, pH 7.4, 25 °C, guanine 40 μM, PRib-PP varied 20 to 630 μM) it was 30.5 ± 1.5 µM. Further, at TbrHGPRT [2] (TbrHGPRT), the “Ki for GMP, fold lower than for IMP” value was 2.5 fold. Further, the “Ki for TbrHGPRT, fold higher than for human HGPRT” value on TbrHGPRT [2] (TbrHGPRT vs human HGPRT) was found to be 5 fold.

At TbrHGPRT [3], `N.N.O=S(=O)(O)O` [sulphate, ammonium sulphate] yielded an inhibition of 25%.

Regarding `O=P(O)(O)OC[C@H]1O[C@H](OP(=O)(O)OP(=O)(O)O)[C@H](O)[C@@H]1O` [PRib-PP], the Km in the experiment on TcrHGPRT (setting [6]) is 32.4 ± 3.1 µM; in the experiment on Human HGPRT [4] (setting [7]), 59.6 ± 6 µM.

For `Nc1nc2nc[nH]c2c(=O)[nH]1` [Guanine], the Km with TcrHGPRT (setting [6]) was 9.9 ± 0.29 µM; in the experiment on Human HGPRT [4] (setting [7]), 1.9 ± 0.4 µM. The kcat is 41.2 ± 2.9 s⁻¹ in the experiment with TcrHGPRT (setting [8]) and 8.2 ± 0.6 s⁻¹ with Human HGPRT [4] (ref de Jersey et al. 10).

As for `O=c1[nH]cnc2nc[nH]c12` [Hypoxanthine], the results for the Michaelis-Menten constant (Km) in the experiment on TcrHGPRT (setting [6]) and with Human HGPRT [4] (setting [7]) were 8.6 ± 1 µM and 3.4 ± 1 µM, respectively. Further, the turnover number (kcat) is 23 s⁻¹ with TcrHGPRT (setting [8]) and 5.2 ± 0.4 s⁻¹ in the experiment on Human HGPRT [4] (ref de Jersey et al. 10). In addition, the “Km, fold higher than for guanine” value at TbrHGPRT [5] (TbrHGPRT) was 2 fold.

In the case of `Nc1nc2c(ncn2CCCCP(=O)(O)O)c(=O)[nH]1` [Compound 1], the Ki was 21 µM on Human HGPRT [1] and 23.7 ± 0.3 µM at TbrHGPRT [2].

Regarding `O=c1[nH]cnc2c1ncn2CCCCCP(=O)(O)O` [Compound 6], the Ki at Human HGPRT [1] was above 100 µM; at TbrHGPRT [2], 15.8 ± 1.8 µM.

`O=c1[nH]cnc2c1ncn2CCCCP(=O)(O)O` [Compound 5]: the Ki on Human HGPRT [1] was above 100 µM; on TbrHGPRT [2], 58.6 ± 4 µM.

Turning to `O=c1[nH]c(=O)c2nc[nH]c2[nH]1` [Xanthine], the Km entry was “No activity reported” with TcrHGPRT (setting [8]); “Not a substrate” in the experiment with Human HGPRT [4] (ref de Jersey et al. 10); “Weak activity” at TbrHGPRT [5] (0.03 M phosphate buffer, […] MgCl2, 1 mM DTT, pH 7.4, 25 °C, bases at 500 μM PRib-PP, PRib-PP at 40 μM guanine). Further, the kcat result in the experiment on TcrHGPRT (setting [8]) is “No activity reported”; in the experiment on Human HGPRT [4] (ref de Jersey et al. 10), “Not a substrate”; at TbrHGPRT [5] (0.03 M phosphate buffer, […] MgCl2, 1 mM DTT, pH 7.4, 25 °C), “Weak activity”. Besides, the “activity as a substrate” value at TbrHGPRT [5] (TbrHGPRT) was “only very weak activity”.

As a reminder, the Ki is the equilibrium dissociation constant of an inhibitor or competing ligand from its target. By inhibition is commonly meant how much of the control response was suppressed. High values mean strong suppression, low ones little suppression. The Km is the concentration of substrate that gives half-maximal velocity. The term kcat denotes the maximal rate divided by the concentration of active sites.
